Source: US20170296540A1, “METHODS OF TREATING FRIEDREICH'S ATAXIA USING SRC INHIBITORS” (Fratagene Therapeutics S.R.L., priority 2014, published 2017)
“Also recorded” adds a separate entry of the source. Like-named read-outs stand apart in the source and are kept apart here.

Experiments:
[1] = tested on: HEK293^FXN cells stably expressing a single copy of wild-type frataxin; assay: Frataxin precursor accumulation with Src inhibitor, ubiquitin competing molecule or combination in HEK293^FXN cells; conditions: F166 1 uM; 24 h
Protocol: Data are representative of four independent experiments. […] The frataxin expression was normalized with tubulin, and frataxin expression in non-treated cells (−) was set to 1. Data represent the mean±1 S.E.M. from four independent experiments.
The frataxin precursor (FXN) and tubulin expression (TUB) were analyzed by western blot (FIG. 7A). The data shown are representative of four independent experiments.
The amount of frataxin accumulation was quantified by densitometry (FIG. 7B). Frataxin expression was normalized with tubulin, and frataxin expression in non-treated cells (−) was set to 1. The data shown represent the mean±1 S.E.M. from four independent experiments.

[2] = tested on: FRDA patient-derived B cells (GM16214); assay: Frataxin accumulation in frataxin-deficient FRDA patient-derived B cells (western blot, densitometry); conditions: for frataxin accumulation in frataxin-deficient cells (mature frataxin): FRDA patient-derived B cells, 10 μM, time course 24 h to 72 h
Protocol: (§5) Left panels: mature frataxin (FXN) and tubulin expression (TUB) was analyzed by western blot. Data are representative of three independent experiments. Right panels: densitometric quantification of frataxin accumulation. Frataxin expression was normalized with tubulin and frataxin expression in non-treated cells (NT) set to one. Data represent the mean±1 S.E.M. from three different independent experiments performed for each inhibitor in the left panels.
(§6) Total cell extracts were prepared in ice-cold modified RIPA buffer (10 mM sodium phosphate pH 7.2, 150 mM NaCl, 1% Na deoxycholate, 0.1% SDS, 1% Nonidet P-40, 2 mM EDTA) or IP buffer (50 mM Tris-HCl, pH 7.5, 150 mM NaCl, 1% Nonidet P-40, 5 mM EDTA, 5 mM EGTA) supplemented with complete protease inhibitor cocktail (Roche Diagnostics, Milan, Italy), sodium orthovanadate 1 mM and NaF 25 mM to inhibit phosphatases.
(§7) Cell lysates (100 μg) were resolved by SDS-PAGE and analyzed by immunoblot with specific mAb anti-frataxin clone 1G2 and STR-23 (Immunological Sciences, Rome, Italy) mAb anti-tubulin (Sigma), mAb anti-actin (Sigma), mAb anti-phosphotyrosine (Millipore), pAb anti-phospho-Src (Life Technologies), mAb anti-GFP (Takara), secondary antibody horseradish peroxidase-conjugated goat anti-mouse (Pierce), secondary antibody horseradish peroxidase-conjugated mouse anti-rabbit (Pierce), secondary antibody horseradish peroxidase-conjugated goat anti-Fc anti-mouse (Thermo Scientific) using ECL system detection (GE Healthcare Europe GmbH, Milan, Italy).
(§8) For treatment longer than 24 h, inhibitors were added every 2 days, and each time lymphoblasts were centrifuged and resuspended at 400.000 cells/ml with the indicated concentration of inhibitor.
(§9) FRDA lymphoblasts were exposed to these inhibitors for different time periods.

[3] = tested on: HEK293^FXN cells stably expressing non-phosphorylable Y118F frataxin mutant; assay: Frataxin accumulation (western blot, densitometry) in HEK293^FXN cells expressing Y118F frataxin mutant; format: cell-based, human; conditions: 1, 3 and 10 μM, 24 h
Protocol: (§1) FIG. 4. […] HEK293^FXN cells stably expressing single copy of wild type frataxin (WT) or non-phosphorylable Y118F frataxin mutant (Y118F) were treated for 24 h with 1, 3, and 10 μM of either Src inhibitor SU6656, PP2, dasatinib, bosutinib, saracatinib, or vehicle (−). […] Data are representative of three independent experiments. The precursor (P), intermediate (I) and mature (M) frataxin forms are indicated. Right panels: Densitometric quantification of frataxin accumulation for the corresponding inhibitor.
(§2) HEK-293 Flp-In cells (Life Technologies) are HEK-293 variants allowing the stable and isogenic integration and expression of a transfected gene. The HEK-293 clone stably expressing frataxin^1-210 (Condo et al. 2007) and the clone stably expressing frataxin^V118F were generated by mutagenesis as described below. HEK-293 Flp-In cells were maintained in DMEM supplemented with 10% FBS.
(§3) Densitometric analyses were performed using ImageLab software (Biorad).
(§4) Because phosphorylation on Y118 promotes ubiquitination and that preventing ubiquitin-dependent degradation increases frataxin levels (Rufini et al. 2011), the effects of frataxin phosphorylation by Src kinase were tested for enhancement of frataxin expression.

[4] = tested on: FRDA patient-derived B cells (GM16214)
Protocol: as §5, §6, §7, §8, §9

[5] = tested on: endogenous frataxin in HEK293 cells; assay: Endogenous frataxin accumulation in HEK293 cells (western blot, densitometry); format: cell-based, human; conditions: 1, 3 and 10 μM, 24 h
Protocol: Human HEK293 cells were treated with 1, 3 and 10 μM of SU6656, PP2, and dasatinib Src inhibitor or vehicle (−) for 24 h. Frataxin (FXN) and tubulin expression (TUB) was analyzed by western blot. Data are representative of three independent experiments. […] Right panels: densitometric quantification of frataxin accumulation. Frataxin expression was normalized with tubulin and frataxin expression in non-treated cells (NT) set to one. Data represent the mean±1 S.E.M. from three different independent experiments performed for each inhibitor in the left panels.
Human embryonic kidney HEK-293 cells were cultured in Dulbecco's modified Eagle's medium (DMEM) supplemented with 10% fetal bovine serum (FBS). […]
Cell lysates (100 μg) were resolved by SDS-PAGE and analyzed by immunoblot with specific mAb anti-frataxin clone 1G2 and STR-23 (Immunological Sciences, Rome, Italy) mAb anti-tubulin (Sigma), mAb anti-actin (Sigma), mAb anti-phosphotyrosine (Millipore), pAb anti-phospho-Src (Life Technologies), mAb anti-GFP (Takara), secondary antibody horseradish peroxidase-conjugated goat anti-mouse (Pierce), secondary antibody horseradish peroxidase-conjugated mouse anti-rabbit (Pierce), secondary antibody horseradish peroxidase-conjugated goat anti-Fc anti-mouse (Thermo Scientific) using ECL system detection (GE Healthcare Europe GmbH, Milan, Italy). […]

[6] = tested on: HEK293^FXN cells stably expressing single copy of wild type frataxin; assay: Frataxin accumulation (western blot, densitometry) in HEK293^FXN cells expressing wild type frataxin; format: cell-based, human; conditions: 1, 3 and 10 μM, 24 h
Protocol: as §1, §2, §3, §4

nude mice = conditions: mouse, in vivo, po; cited from earlier work

Structure (SMILES)	frataxin precursor accumulation, single agent [1]	frataxin accumulation in frataxin-deficient cells (mature frataxin) [2]	frataxin accumulation (frataxin normalized with tubulin, non-treated cells set to one) [3]	tolerability in cells [4]	endogenous frataxin accumulation [5]	frataxin accumulation (frataxin normalized with tubulin, non-treated cells set to one) [6]	tolerability in cells ([2]; FRDA patient-derived B cells (GM16214))	toxicity of regimen (nude mice)
COc1ccccc1C(=O)N/N=C(\C)c1ccc2c(c1)Nc1ccccc1S2 [F166]	accumulate frataxin precursor	–	–	–	–	–	–	–
CC(C)(C)n1nc(-c2ccc(Cl)cc2)c2c(N)ncnc21 [PP2]	–	promote frataxin accumulation	not the non-phosphorylable Y118F frataxin mutant	best tolerated	promote endogenous frataxin accumulation	upregulate wild type frataxin	–	–
CN(C)S(=O)(=O)c1ccc2c(c1)/C(=C/c1cc3c([nH]1)CCCC3)C(=O)N2 [SU6656]	–	further accumulated within 72 h; also recorded: promote frataxin accumulation	not the non-phosphorylable Y118F frataxin mutant	best tolerated	promote endogenous frataxin accumulation	upregulate wild type frataxin	–	–
Cc1nc(Nc2ncc(C(=O)Nc3c(C)cccc3Cl)s2)cc(N2CCN(CCO)CC2)n1 [dasatinib]	–	–	–	–	–	–	best tolerated	no toxicity
